Laboratory results published in US6461997B1, “Triazole sulfones having herbicidal activity” (Monsanto Technology LLC, priority 1999, dated 2002).

Test system: CIRAR (canada thistle (seedling))
Experiment: Pre-emergence herbicidal activity, warm season
Assay type: in vivo, Cirsium arvense
Settings: GR80 = lowest tested rate (300, 100, 30, 10 g/ha) with 80% or greater inhibition; approx. 14 days after treating; 30/21° C.
In short: (§1)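 GR80 values derive from percent inhibition relative to untreated plants, read roughly 14 days after sowing and pre-emergence soil-surface treatment (compound in 50:50 acetone/water; rates typically 10, 30, 100, 300 g/ha). Warm-season weeds grew at 30/21° C day/night, cool-season ones at 18/13° C; an asterisk marks activity without reaching 80% at the highest rate.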

CCN(CC)C(=O)n1cnc(S(=O)(=O)C(F)(F)c2ccccc2)n1 [Example 5] was tested. Which “Pre-emergence activity (GR80) CIRAR” value did it give?
The value was 100 g/ha.

Test system: SINAR (wild mustard)
Experiment: Pre-emergence herbicidal activity, cool season
Assay type: in vivo, Sinapis arvensis
Settings: lowest tested rate with 80% or greater inhibition; rates 300, 100, 30, 10 g/ha; about 14 days
In short: as §1

For CCN(CC)C(=O)n1cnc(S(=O)(=O)C(F)(F)c2ccccc2)n1 [Example 5], which “Pre-emergence activity GR80, SINAR” value is on record?
The value was 100 g/ha.

Test system: PANMI (wild proso millet)
Experiment: Pre-emergence herbicidal activity, warm season
Assay type: in vivo, Panicum miliaceum
Settings: GR80 = lowest tested rate (300, 100, 30, 10 g/ha) with 80% or greater inhibition; approx. 14 days after treating; 30/21° C.
In short: (§2)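 GR80 values, pre-emergence, soil applied at 300, 100, 30, 10 g/ha. Warm regime 30/21 °C: PANMI, DIGSA. Cool regime 18/13 °C: ALOMY, POLCO. Rating ~14 d, % inhibition vs untreated.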

With CCN(CC)C(=O)n1cnc(S(=O)(=O)C(F)(F)c2ccccc2)n1 [Example 5] as the compound, how does the “Pre-emergence activity (GR80) PANMI” value read?
Its value is 100 g/ha.

Test system: LAMPU (purple deadnettle)
Experiment: Pre-emergence herbicidal activity, cool season
Assay type: in vivo, Lamium purpureum
Settings: lowest tested rate with 80% or greater inhibition; rates 300, 100, 30, 10 g/ha; about 14 days
In short: as §1

With CCN(CC)C(=O)n1cnc(S(=O)(=O)C(F)(F)c2ccccc2)n1 [Example 5] as the compound, how does the “Pre-emergence activity GR80, LAMPU” value read?
Its value is “[empty]”.

Test system: DIGSA (large crabgrass)
Experiment: Pre-emergence herbicidal activity, warm season
Assay type: in vivo, Digitaria sanguinalis
Settings: GR80 = lowest tested rate (300, 100, 30, 10 g/ha) with 80% or greater inhibition; approx. 14 days after treating; 30/21° C.
In short: as §2

For CCN(CC)C(=O)n1cnc(S(=O)(=O)C(F)(F)c2ccccc2)n1 [Example 5], which “Pre-emergence activity (GR80) DIGSA” value is on record?
The value was 100 g/ha.

Test system: SOLNI (black nightshade)
Experiment: Pre-emergence herbicidal activity, warm season
Assay type: in vivo, Solanum nigrum
Settings: GR80 = lowest tested rate (300, 100, 30, 10 g/ha) with 80% or greater inhibition; approx. 14 days after treating; 30/21° C.
In short: as §1

For CCN(CC)C(=O)n1cnc(S(=O)(=O)C(F)(F)c2ccccc2)n1 [Example 5], which “Pre-emergence activity (GR80) SOLNI” value is on record?
Its value is 300 g/ha.

Test system: SETFA (giant foxtail)
Experiment: Pre-emergence herbicidal activity, warm season
Assay type: in vivo, Setaria faberi
Settings: GR80 = lowest tested rate (300, 100, 30, 10 g/ha) with 80% or greater inhibition; approx. 14 days after treating; 30/21° C.
In short: (§3)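 Seeds sown in sterilised fertilised topsoil received surface-applied compound in 50:50 acetone/water, typically at 300, 100, 30 and 10 g/ha, then greenhouse-grown at 30/21° C (warm-season species) or 18/13° C (cool-season species). Percent inhibition versus untreated plants was scored at about 14 days, giving GR80; an asterisk marks activity short of 80% at the top rate.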

CCN(CC)C(=O)n1cnc(S(=O)(=O)C(F)(F)c2ccccc2)n1 [Example 5] was tested. Which “Pre-emergence activity (GR80) SETFA” value did it give?
The value was 100 g/ha.

Test system: POLCO (wild buckwheat)
Experiment: Pre-emergence herbicidal activity, cool season
Assay type: in vivo, Polygonum convolvulus
Settings: lowest tested rate with 80% or greater inhibition; rates 300, 100, 30, 10 g/ha; about 14 days
In short: as §2

How did the “Pre-emergence activity GR80, POLCO” value turn out when CCN(CC)C(=O)n1cnc(S(=O)(=O)C(F)(F)c2ccccc2)n1 [Example 5] was run?
Its value is “[empty]”.

Test system: AMARE (redroot pigweed)
Experiment: Pre-emergence herbicidal activity, warm season
Assay type: in vivo, Amaranthus retroflexus
Settings: GR80 = lowest tested rate (300, 100, 30, 10 g/ha) with 80% or greater inhibition; approx. 14 days after treating; 30/21° C.
In short: as §1

Which “Pre-emergence activity (GR80) AMARE” value does the source give for CCN(CC)C(=O)n1cnc(S(=O)(=O)C(F)(F)c2ccccc2)n1 [Example 5] here?
Its value is 100 g/ha.

Test system: KCHSC (kochia)
Experiment: Pre-emergence herbicidal activity, cool season
Assay type: in vivo, Kochia scoparia
Settings: lowest tested rate with 80% or greater inhibition; rates 300, 100, 30, 10 g/ha; about 14 days
Procedure: (§4) Tables 5 to 8 summarize results of tests conducted as described below to determine the pre-emergence herbicidal activity, in the form of a GR80 value, of illustrative compounds of this invention. […] Compounds of the invention were typically applied at rates of 300, 100, 30, and 10 g/ha. Where herbicidal activity was evident but 80% inhibition was not achieved at the highest rate tested, an asterisk (*) is shown in the following tables.
(§5) The pre-emergence tests were conducted by the following procedure. Topsoil was sieved to pass through a 1.27 cm screen. Fertilizer was added to the topsoil and the mixture was then sterilized by heating. The topsoil mixture was placed in a pot and compacted to a depth of 1.0 to 1.25 cm from the top of the pot. Seeds of each of several monocotyledonous and dicotyledonous annual plant species were placed on top of the soil. Additional soil was subsequently placed over the seeds to level-fill the pot. A known amount of each test compound dissolved or suspended in an appropriate organic solvent was diluted with a 50:50 mix of acetone and water and applied to the surface of the soil. After treatment the plants were placed in a greenhouse where they received 0.64 cm of overhead irrigation. All subsequent watering consisted of a light overhead mist and/or subirrigation as needed for germination and growth. Tables 5 and 6 below relate to warm season plant species which were placed after pre-emergence treatment in a greenhouse with a 30/21° C. day/night temperature regime. Tables 7 and 8 below relates to cool season plant species placed after pre-emergence treatment in a greenhouse or growth chamber with an 18/13° C. day/night temperature regime.
(§6) Approximately 14 days after planting and treating, the plants were observed and herbicidal efficacy recorded as percent inhibition by comparison with untreated plants.
(§7) The plant species usually regarded as weeds which were utilized in the tests are identified in the tables below according to the following legend, in which “d” indicates a dicotyledonous species and “m” a monocotyledonous species. All monocotyledonous species included in the tests herein are grasses.

For CCN(CC)C(=O)n1cnc(S(=O)(=O)C(F)(F)c2ccccc2)n1 [Example 5], which “Pre-emergence activity GR80, KCHSC” value is on record?
Its value is “[empty]”.

Test system: VERPE (creeping speedwell)
Experiment: Pre-emergence herbicidal activity, cool season
Assay type: in vivo, Veronica persicaria
Settings: lowest tested rate with 80% or greater inhibition; rates 300, 100, 30, 10 g/ha; about 14 days
In short: as §1

How did the “Pre-emergence activity GR80, VERPE” value turn out when CCN(CC)C(=O)n1cnc(S(=O)(=O)C(F)(F)c2ccccc2)n1 [Example 5] was run?
The value was 100 g/ha.

Test system: SETVI (green foxtail)
Experiment: Pre-emergence herbicidal activity, cool season
Assay type: in vivo, Setaria viridis
Settings: GR80 = lowest tested rate (300, 100, 30, 10 g/ha) with 80% or greater inhibition; approx. 14 days after treating; 18/13° C.
In short: as §1

For CCN(CC)C(=O)n1cnc(S(=O)(=O)C(F)(F)c2ccccc2)n1 [Example 5], which “Pre-emergence activity (GR80) SETVI” value is on record?
Its value is 100 g/ha.

Test system: ECHCG (barnyardgrass)
Experiment: Pre-emergence herbicidal activity, warm season
Assay type: in vivo, Echinochloa crus-galli
Settings: GR80 = lowest tested rate (300, 100, 30, 10 g/ha) with 80% or greater inhibition; approx. 14 days after treating; 30/21° C.
In short: as §3

For CCN(CC)C(=O)n1cnc(S(=O)(=O)C(F)(F)c2ccccc2)n1 [Example 5], which “Pre-emergence activity (GR80) ECHCG” value is on record?
The value was 300 g/ha.

Test system: ALOMY (blackgrass)
Experiment: Pre-emergence herbicidal activity, cool season
Assay type: in vivo, Alopecurus myosuroides
Settings: GR80 = lowest tested rate (300, 100, 30, 10 g/ha) with 80% or greater inhibition; approx. 14 days after treating; 18/13° C.
In short: as §2

CCN(CC)C(=O)n1cnc(S(=O)(=O)C(F)(F)c2ccccc2)n1 [Example 5] was tested. Which “Pre-emergence activity (GR80) ALOMY” value did it give?
The value was “* (activity observed, at least at highest rate, but <80% inhibition)”.

Test system: SORHA (johnsongrass (seedling))
Experiment: Pre-emergence herbicidal activity, warm season
Assay type: in vivo, Sorghum halepense
Settings: GR80 = lowest tested rate (300, 100, 30, 10 g/ha) with 80% or greater inhibition; approx. 14 days after treating; 30/21° C.
In short: as §3

For CCN(CC)C(=O)n1cnc(S(=O)(=O)C(F)(F)c2ccccc2)n1 [Example 5], which “Pre-emergence activity (GR80) SORHA” value is on record?
Its value is 100 g/ha.

Test system: BRAPP (broadleaf signalgrass)
Experiment: Pre-emergence herbicidal activity, warm season
Assay type: in vivo, Brachiaria platyphylla
Settings: GR80 = lowest tested rate (300, 100, 30, 10 g/ha) with 80% or greater inhibition; approx. 14 days after treating; 30/21° C.
In short: as §3

How did the “Pre-emergence activity (GR80) BRAPP” value turn out when CCN(CC)C(=O)n1cnc(S(=O)(=O)C(F)(F)c2ccccc2)n1 [Example 5] was run?
Its value is 300 g/ha.

Test system: STEME (common chickweed)
Experiment: Pre-emergence herbicidal activity, cool season
Assay type: in vivo, Stellaria media
Settings: lowest tested rate with 80% or greater inhibition; rates 300, 100, 30, 10 g/ha; about 14 days
In short: as §1

With CCN(CC)C(=O)n1cnc(S(=O)(=O)C(F)(F)c2ccccc2)n1 [Example 5] as the compound, how does the “Pre-emergence activity GR80, STEME” value read?
Its value is “[empty]”.

Test system: SASKR (russian thistle)
Experiment: Pre-emergence herbicidal activity, cool season
Assay type: in vivo, Salsola kali
Settings: lowest tested rate with 80% or greater inhibition; rates 300, 100, 30, 10 g/ha; about 14 days
In short: as §1

For CCN(CC)C(=O)n1cnc(S(=O)(=O)C(F)(F)c2ccccc2)n1 [Example 5], which “Pre-emergence activity GR80, SASKR” value is on record?
The value was 300 g/ha.

Test system: CHEAL (common lambsquarters)
Experiment: Pre-emergence herbicidal activity, warm season
Assay type: in vivo, Chenopodium album
Settings: GR80 = lowest tested rate (300, 100, 30, 10 g/ha) with 80% or greater inhibition; approx. 14 days after treating; 30/21° C.
In short: as §1

For CCN(CC)C(=O)n1cnc(S(=O)(=O)C(F)(F)c2ccccc2)n1 [Example 5], which “Pre-emergence activity (GR80) CHEAL” value is on record?
Its value is 300 g/ha.

Test system: GALAP (catchweed bedstraw)
Experiment: Pre-emergence herbicidal activity, cool season
Assay type: in vivo, Galium aparine
Settings: lowest tested rate with 80% or greater inhibition; rates 300, 100, 30, 10 g/ha; about 14 days
In short: as §1

With CCN(CC)C(=O)n1cnc(S(=O)(=O)C(F)(F)c2ccccc2)n1 [Example 5] as the compound, how does the “Pre-emergence activity GR80, GALAP” value read?
Its value is “[empty]”.

Test system: AGSST (creeping bentgrass)
Experiment: Pre-emergence herbicidal activity, cool season
Assay type: in vivo, Agrostis stolonifera
Settings: GR80 = lowest tested rate (300, 100, 30, 10 g/ha) with 80% or greater inhibition; approx. 14 days after treating; 18/13° C.
In short: as §1

CCN(CC)C(=O)n1cnc(S(=O)(=O)C(F)(F)c2ccccc2)n1 [Example 5] was tested. Which “Pre-emergence activity (GR80) AGSST” value did it give?
Its value is 30 g/ha.

Test system: AGRRE (quackgrass (seedling))
Experiment: Pre-emergence herbicidal activity, cool season
Assay type: in vivo, Elymus repens
Settings: GR80 = lowest tested rate (300, 100, 30, 10 g/ha) with 80% or greater inhibition; approx. 14 days after treating; 18/13° C.
Procedure: as §4, §5, §6, §7

CCN(CC)C(=O)n1cnc(S(=O)(=O)C(F)(F)c2ccccc2)n1 [Example 5] was tested. Which “Pre-emergence activity (GR80) AGRRE” value did it give?
The value was “* (activity observed, at least at highest rate, but <80% inhibition)”.
